Source: patent US6613322B2, “Method for treating a subject suffering from conditions associated with an extracellular zinc sphingomyelinase” (The Trustees of Columbia University in the City of New York, priority 1997, dated 2003)

Key:
L-SMase = biological target: T1, L-SMase (Homo sapiens, UniProt P17405); assay: SMase assay of HUVEC cell homogenate, zinc-dependency; type: biochemical
T1 construct: endogenous in cells; host or cells: HUVEC, sonicated cell homogenate
T1 sequence (P17405 47-631): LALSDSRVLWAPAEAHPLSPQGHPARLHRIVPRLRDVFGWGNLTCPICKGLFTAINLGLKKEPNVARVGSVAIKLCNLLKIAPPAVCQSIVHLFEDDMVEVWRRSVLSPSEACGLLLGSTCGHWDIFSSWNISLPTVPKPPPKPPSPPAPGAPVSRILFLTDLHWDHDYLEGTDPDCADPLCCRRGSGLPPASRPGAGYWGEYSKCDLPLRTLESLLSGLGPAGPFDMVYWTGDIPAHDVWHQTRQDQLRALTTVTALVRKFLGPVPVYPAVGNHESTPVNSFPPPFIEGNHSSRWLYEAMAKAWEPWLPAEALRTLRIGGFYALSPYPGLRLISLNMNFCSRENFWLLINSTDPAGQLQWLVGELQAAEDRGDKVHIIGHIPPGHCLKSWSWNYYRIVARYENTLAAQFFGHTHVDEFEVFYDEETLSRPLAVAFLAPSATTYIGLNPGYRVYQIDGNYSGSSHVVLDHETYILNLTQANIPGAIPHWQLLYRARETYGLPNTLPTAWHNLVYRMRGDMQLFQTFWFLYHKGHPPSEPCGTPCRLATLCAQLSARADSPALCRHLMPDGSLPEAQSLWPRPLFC
Description: Smase Assay—As previously described (15), the standard 200-μl assay mixture consisted of up to 40 μl of sample (conditioned media or homogenized cells; see above, and a volume of assay buffer (0.1 M sodium acetate, pH 5.0) to bring the volume to 160 μl. The reaction was initiated by the addition of 40 μl substrate (50 pmol [^3H]sphingomyelin) in 0.25 M sucrose containing 3% Triton X-100 (final concentration of Triton X-100 in the 200-μl assay mix=0.6%). When added, the final concentrations of EDTA and Zn^2+ were 5 mM and 0.1 mM, respectively, unless indicated otherwise. The assay mixtures were incubated at 37° C. for no longer than 3 h and then extracted by the method of Bligh and Dyer (37); the lower, organic phase was harvested, evaporated under N2, and fractionated by TLC using chloroform:methanol (95:5). The ceramide spots were scraped and directly counted to quantify [^3H]ceramide. Typically, our assay reactions contained approximately 20 μg of cellular homogenate protein and a volume of conditioned media derived from a quantity of cells equivalent to approximately 50 μg of cellular protein.

[1] = system: mannose-phosphorylated S-SMase of HUVECs; assay: Binding of HUVEC S-SMase to mannose-phosphate receptor column; type: cell-based, human; conditions: conditioned medium of IL-1β-treated HUVECs; Western blot densitometry
Text: We recently reported that S-SMase is secreted through a Golgi pathway that bypasses the lysosomal pathway of L-SMase. Thus, we considered three general mechanisms to explain how IL-Lβ increases the secretion of SMase: secretion of mannose-phosphorylated SMase during trafficking of the ASM precursor to lysosomes (e.g., due to saturation of the mannose-6-phosphate receptor—cf. Ref. (46)), induction of secretion of intralysosomal SMase (cf. Ref. (47)), or increased trafficking of the ASM precursor protein through the normal Golgi secretory pathway. To begin, we assessed the mannose-phosphorylation state of S-SMase from control and IL-1β-treated HUVECs by passing conditioned media from these cells over a mannose-phosphate receptor column (cf. Ref. (48)). By Western blot analysis quantified by densitometry, only 7.9% of control S-SMase and 4.9% of S-SMase from the cytokine-treated cells bound to the column and could be eluted with mannose-6-phosphate. As a control for this experiment, we have previously shown that the massive secretion of SMase by ASM-transfected CHO cells can be partly explained by secretion of mannose-phosphorylated SMase due to saturation of the mannose-6-phosphate receptor^2; when conditioned medium from these cells was passed over the receptor column, 40.3% bound and could be eluted with mannose-6-phosphate. […]

HUVECs = assay: LDH release from HUVECs; type: cell-based, human; conditions: IL-1β 5 ng/ml, 18 h
Description: HUVECs were incubated for 18 h in DMEM, 0.2% BSA alone (Con) or containing human recombinant interleukin-1β (5 ng/ml) (IL1β). Conditioned media from these cells were then assayed for SMase activity (FIG. 25A) and LDH activity (FIG. 25B).
LDH Assay—LDH activity was assayed in medium and cells as reported previously (42) using a kit purchased from Sigma (catalogue #500); the assay measures the unreacted pyruvic acid using a colorometric assay.

Row | Compound | increase of enzymatic activity of L-SMase by Zn2+ (L-SMase; L-SMase from IL-1β-treated HUVECs) [fold] | increase of enzymatic activity of L-SMase by Zn2+ (L-SMase; L-SMase from untreated HUVECs) [fold] | S-SMase bound to mannose-phosphate receptor column and eluted with mannose-6-phosphate [1] [%] | increase in LDH release (HUVECs) [%]
1 | [Cl-].[Cl-].[Zn+2] [Zn^2+, ZnCl2] | 1.13±0.08 | 1.09±0.04 |  | 
2 | IL-1β: human recombinant interleukin-1β |  |  | 4.9 | 60
